# Results published in patent US20200071667A1, “COMPOSITION COMPRISING GLYCYRRHIZIN FOR INDUCING DIFFERENTIATION INTO MYELOID-DERIVED SUPPRESSOR CELL FROM MYELOID CELL” (Konkuk University Glocal Industry-Academic Collabo, priority 2018, published 2020).
# Tested on: Toll-like receptor 4 (TLR4)
# Test: Western blotting of TLR4 in heart or lung tissues
# Type: in vivo, C57BL/6 mice
# Experimental: Specifically, 0.1 ml of phosphate buffered saline (PBS; Gibco, Grand Island, N.Y., USA) was injected intraperitoneally (i.p.) into mice of the control, and 12 hours after the injection, 0.1 ml of PBS was intraperitoneally injected again into each mouse. 1 μg of LPS (Escherichia coli serotype 0111:B4, Sigma-Aldrich, St. Louis, Mo., USA) dissolved in 0.1 ml of PBS was injected intraperitoneally (i.p.) into mice of the LPS group to induce sepsis, and 12 hours after sepsis induction, 0.1 ml of PBS was intraperitoneally injected into each mouse. 1 μg of LPS and 100 mg/kg of ammonium glycyrrhizinate (GR; Abcam Inc., Cambridge, UK) dissolved in 0.1 ml of PBS were injected intraperitoneally (i.p.) into mice of the LPS+GR group, and 12 hours after the injection, 100 mg/kg of ammonium glycyrrhizinate dissolved in 0.1 ml of PBS was intraperitoneally injected into each mouse.
# It was determined whether TLR4 expression levels were inhibited when mice with sepsis induced by LPS were treated with glycyrrhizin. The expression level of Toll-like receptor 4 (TLR4) was confirmed using immunohistochemistry and western blot analysis.
# Western blotting was performed to confirm the intensity of TLR4 staining. […] Band intensity was quantified using Luminescent Image Analyzer LAS-3000 (FUJIFILM Medical Systems, Hanover Park, Ill., USA). The density of each band was analyzed using NIH Image J software.
substance,measurement,setting,value
lipopolysaccharide [LPS],TLR4 intensity by western blotting,heart,403.9±29.3
same,TLR4 intensity by western blotting,lungs,350.7±21.3
